Source: patent US20050153943A1, “Methods of simultaneously treating mucositis and fungal infection” (priority 2002, published 2005)
≈ marks a conversion by molar mass, not a printed value. Structures can show the parent of a compound that is named as a salt. Marks after values point to notes of the source that are not given here.

Experiments:
[1] = 250 mg every six hours over a twenty-four hour period; cited from earlier work
[2] = system: 11 different species of fungi; experiment: Summary of Example 40 over the whole panel; assay type: cell-based; conditions: 11 tested fungi, up to 4.00 μg/ml
Method: (§1) Each drug was dissolved in DMSO (1.0 mg/ml) as a stock solution and stored at −20° C. Just prior to use, each stock solution was thawed and diluted in DMSO to produce 6 different 100× concentrations. Potato dextrose agar was dissolved in distilled water (39 g/L) and sterilized at […] (250° F.) for 15 min. The agar solution was mixed with each drug (in a water bath at 60° C.) to make a series of final concentrations, i.e. 0.00, 0.25, 0.50, 1.00, 2.00, 4.00 μg/ml. The mixtures were then transferred to 24-well plates (1 ml/well). After the gel had formed, the fungus in PBS (spore count=1-5×10^4/ml) was inoculated by pipetting 10 μl onto each gel. The plates were incubated at 30° C. for different times, depending on the requirement of each species, e.g. 24 hours for Penicillium, Rhizopus, Tricothecium, Ulocladium, Absidia, Aspergilus, Caindida, Cunninghamella, 3 days for Scedosporium, and 5 days for Fonsecae and Phialophora.
(§2) “*” indicates better than or similar results to Amphotericin B. “NI” indicates no detectable inhibition.

Aspergillus f. [3] = experiment: Direct comparison of CMT-3 and Amphotericin B, agar plates (Example 39); assay type: cell-based
Method: The plates were prepared as described above, using […], 0.50, 1.00 and 2.00 concentrations of each of the drugs tested. DMSO was used as a control

Aspergillus f. [4] = experiment: as above; assay type: cell-based; remark: listed apart in the source
Penicillium spores = experiment: Fungistatic or fungicidal activity: pre-treatment of spores, dilution, regrowth on agar (Example 41); assay type: cell-based; conditions: for Growth rate of Penicillium in control cultures with low drug concentration: 0.01 and 0.05 μl/ml, no pre-treatment; for Type of antifungal activity (fungistatic or fungicidal): against Penicillium; for Growth of Penicillium on agar gels after pretreatment of spores: pretreatment with 10 and 50 μl/ml for 24 hours at 30° C., diluted 1000 times, 48 hours on agar
Method: In the pre-treatment phase of the experiment, Penicillium spores were suspended in PBS to achieve a spore count of 10^7/ml. CMT-3 and Amphotericin B were dissolved in DMSO to reach a concentration of 1.0 mg/ml as stock solutions. 10 or 50 μl aliquots of these stock solutions were added to the incubation mixture (containing 1.0 ml of 10^7/ml of Penicillium spores in PBS) to achieve a final concentration of 10 μg/ml or 50 μg/ml, respectively, for both drugs. The various incubations of Penicillium were carried out for 24 hours at 30° C.
After the pre-treatment phase, the reaction mixtures were diluted 1000 times with PBS, reducing the concentration of both drugs to 0.01 μg/ml or 0.05 μg/ml, and reducing the Penicillium spore count to 10^4/ml. These drug concentrations of both CMT-3 and Amphotericin B would not be expected to inhibit the growth of the viable Penicillium spores.
Controls were then prepared. Before incubation, each tube was either not diluted further, or diluted to ½ or ¼ with PBS to produce tubes with three different spore counts, ie, 10^4/ml, or 0.5×10^4/ml, or 0.25×10^4/ml. These cultures were then inoculated on potato dextrose agar gels in 24-well plates, and incubated at 30° C. for 48 hours to determine the rate of growth of the fungus as described before.
The controls were prepared from the suspension in the pre-treatment phase containing only Penicillium spores 10^7/ml, and PBS. This control was diluted by 1000 times with PBS to produce a spore count of 10^4/ml. 1.0 ml of this diluted spore suspension was added to eight tubes. The stock solutions of CMT-3 and Amphotericin B, and DMSO were also diluted by 1000 times with PBS (the new concentration being 1.0 μg/ml for both drugs and 0.1% for DMSO), and 10 or 50 μl of these solutions was added into the above tubes. The final concentrations in each tube was either 0.01 μg/ml or 0.05 μg/ml for both drugs (CMT-3 or AmB), or 0.001% or 0.005% for DMSO. These tubes were further treated as described above to determine the growth of the fungus as controls.

Aspergilus Fumigatus = experiment: IC50 and MIC on microplate agar gels (Example 40); assay type: cell-based; conditions: agar gel, 0.25-4.00 μg/ml, 30° C., 24 hours; NI = no detectable inhibition
Method: as §1, §2

Scedosporium Apiospermum = experiment: IC50 and MIC on microplate agar gels (Example 40); assay type: cell-based; conditions: agar gel, 0.25-4.00 μg/ml, 30° C., 3 days; NI = no detectable inhibition
Method: as §1, §2

Candida Albicans = experiment: IC50 and MIC on microplate agar gels (Example 40); assay type: cell-based; conditions: agar gel, 0.25-4.00 μg/ml, 30° C., 24 hours; NI = no detectable inhibition
Method: as §1, §2

Penicillium Species = experiment: IC50 and MIC on microplate agar gels (Example 40); assay type: cell-based; conditions: agar gel, 0.25-4.00 μg/ml, 30° C., 24 hours; NI = no detectable inhibition
Method: as §1, §2

Ulocladium Species = experiment: IC50 and MIC on microplate agar gels (Example 40); assay type: cell-based; conditions: agar gel, 0.25-4.00 μg/ml, 30° C., 24 hours; NI = no detectable inhibition
Method: as §1, §2

Rhizopus Species = experiment: IC50 and MIC on microplate agar gels (Example 40); assay type: cell-based; conditions: agar gel, 0.25-4.00 μg/ml, 30° C., 24 hours; NI = no detectable inhibition
Method: as §1, §2

Absidia Species = experiment: IC50 and MIC on microplate agar gels (Example 40); assay type: cell-based; conditions: agar gel, 0.25-4.00 μg/ml, 30° C., 24 hours; NI = no detectable inhibition
Method: as §1, §2

Fonsecae Species = experiment: IC50 and MIC on microplate agar gels (Example 40); assay type: cell-based; conditions: agar gel, 0.25-4.00 μg/ml, 30° C., 5 days; NI = no detectable inhibition
Method: as §1, §2

[5] = single dose of two 100 mg minocycline HCl tablets; cited from earlier work
Rhizopus sp. = experiment: Fungal growth on SABHI agar containing CMT (Example 38); assay type: cell-based; conditions: 25 μg/ml agar, Example 38
Method: The following fungi were inoculated onto potato dextrose agar (PDA) from stock cultures and incubated aerobically at 30° C.: Aspergillus [NT] 1022, Penicillium sp. (laboratory isolate), Candida albicans, ATCC 14053, and Rhizopus sp. […] The conidia were suspended in 0.9% saline and the turbidity was adjusted to match a 0.5 MacFarland standard (equivalent to approximately 1.5×10^8 cells). Candida albicans was suspended in saline and adjusted to 0.5 MacFarland in a similar manner. These suspensions were diluted 1:100 in sterile 0.9% saline. SABHI Agar (Difco) pH 7.0 was prepared in 100 ml amounts and sterilized at 121° C. for 15 min. […] SABHI Agar plates of each CMT and SAHBI agar without CMT using dimethylsulphoxide (DMSO) as a control were inoculated with 10 μl of conidia suspension of Aspergillus fumigatus, Penicillium sp. and Rhizopus sp. and 10 μl suspension of Candida albicans prepared as described above. The plates were then incubated aerobically for 24 hour and for 48 hours at 30° C. The results are set forth in Table 1 (24 hr. incubation) and Table 2 (48 hr. incubation). [table]

[6] = Toxicity in vivo (statement); conditions: at 2.0 μg/ml concentration; unlike AmB
Phialophora Verrucosa = experiment: IC50 and MIC on microplate agar gels (Example 40); assay type: cell-based; conditions: agar gel, 0.25-4.00 μg/ml, 30° C., 5 days; NI = no detectable inhibition
Method: as §1, §2

Cunninghamella Species = experiment: IC50 and MIC on microplate agar gels (Example 40); assay type: cell-based; conditions: agar gel, 0.25-4.00 μg/ml, 30° C., 24 hours; NI = no detectable inhibition
Method: as §1, §2

Tricothecium Species = experiment: IC50 and MIC on microplate agar gels (Example 40); assay type: cell-based; conditions: agar gel, 0.25-4.00 μg/ml, 30° C., 24 hours; NI = no detectable inhibition
Method: as §1, §2

[7] = system: eleven different species of fungi; conditions: cited from earlier work

| SMILES | Antifungal activity over the panel (summary in words) [2] | Growth grade at Conc. 0.125 μg/ml (Aspergillus f. [3]) | Growth grade at Conc. 0.50 μg/ml (Aspergillus f. [3]) | Fungal growth inhibited (Aspergillus f. [3]; 1.0 μg/ml) | Fungal growth inhibited (Aspergillus f. [3]; 2.0 μg/ml) | Growth grade at Conc. 2.00 μg/ml (Aspergillus f. [3]) | Growth grade at Conc. 0.25 μg/ml (Aspergillus f. [4]) | Growth rate of Penicillium in control cultures with low drug concentration (Penicillium spores) | Type of antifungal activity (fungistatic or fungicidal) (Penicillium spores) | Growth of Penicillium on agar gels after pretreatment of spores (Penicillium spores) | IC50 (Aspergilus Fumigatus) | MIC (Aspergilus Fumigatus) | IC50 (Scedosporium Apiospermum) | MIC (Scedosporium Apiospermum) | IC50 (Candida Albicans) | MIC (Candida Albicans) | IC50 (Penicillium Species) | MIC (Penicillium Species) | IC50 (Ulocladium Species) | MIC (Ulocladium Species) | other results |
| --- | --- | --- | --- | --- | --- | --- | --- | --- | --- | --- | --- | --- | --- | --- | --- | --- | --- | --- | --- | --- | --- |
| CN(C)[C@@H]1C(O)=C(C(N)=O)C(=O)[C@@]2(O)C(O)=C3C(=O)c4c(O)cccc4[C@@](C)(O)[C@H]3C[C@@H]12 [tetracycline HCl] | – | – | – | – | – | – | – | – | – | – | – | – | – | – | – | – | – | – | – | – | peak plasma concentration [1]: approximately 3 μg/ml |
| C[C@@H]1[C@H](O)[C@@H](C)/C=C/C=C/C=C/C=C/C=C/C=C/C=C/[C@H](O[C@@H]2O[C@H](C)[C@@H](O)[C@H](N)[C@@H]2O)C[C@@H]2O[C@](O)(C[C@@H](O)C[C@@H](O)[C@H](O)CC[C@@H](O)C[C@@H](O)CC(=O)O[C@H]1C)C[C@H](O)[C@H]2C(=O)O [AmB, Amphotericin B] | the same or less antifungal activity than CMT-3 | 4 (Level of growth in the absence of anti-fungal agent (control).) | 1 (75% reduction in growth in colonies compared to control.) | 100% | 100% | 0 (complete inhibition of growth.) | 2 (50% reduction in growth of colonies compared to control.) | did not inhibit the growth | fungistatic | same rate of growth as PBS and DMSO controls | 0.8 µg/mL (≈ 0.866 µM) | 2.0 µg/mL (≈ 2.16 µM) | 4.0 µg/mL (≈ 4.33 µM) | >4 µg/mL | 0.5 µg/mL (≈ 0.541 µM) | 1.0 µg/mL (≈ 1.08 µM) | 0.12 µg/mL (≈ 0.13 µM) | 0.25 µg/mL (≈ 0.271 µM) | 1.0 µg/mL (≈ 1.08 µM) | 2.0 µg/mL (≈ 2.16 µM) | Growth grade at Conc. 1.00 μg/ml (Aspergillus f. [3]; 1.00 μg/ml): 0 (complete inhibition of growth.); IC50 (Rhizopus Species): 0.4 µg/mL (≈ 0.433 µM); MIC (Rhizopus Species): 1.0 µg/mL (≈ 1.08 µM); IC50 (Absidia Species): 1.0 µg/mL (≈ 1.08 µM); MIC (Absidia Species): 4.0 µg/mL (≈ 4.33 µM); IC50 (Fonsecae Species): 4.0 µg/mL (≈ 4.33 µM); MIC (Fonsecae Species): >4.0 µg/mL |
| CN(C)c1ccc(O)c2c1C[C@H]1C[C@H]3[C@H](N(C)C)C(O)=C(C(N)=O)C(=O)[C@@]3(O)C(O)=C1C2=O [minocycline HCl] | – | – | – | – | – | – | – | – | – | – | – | – | – | – | – | – | – | – | – | – | average minocycline serum level [5]: 2.24 µg/mL |
| NC(=O)C1=C(O)C[C@@H]2C[C@@H]3Cc4cccc(O)c4C(=O)C3=C(O)[C@]2(O)C1=O [COL 3, 6-demethyl-6-deoxy-4-dedimethylaminotetracycline] | effective on all 11 tested fungi | 4 (Level of growth in the absence of anti-fungal agent (control).) | 1 (75% reduction in growth in colonies compared to control.) | 95% | 100% | 0 (complete inhibition of growth.) | 2 (50% reduction in growth of colonies compared to control.) | did not inhibit the growth | fungicidal | little or no growth | 0.5 µg/mL (≈ 1.35 µM) | 1.0* μg/ml | 0.2 µg/mL (≈ 0.539 µM) | 1.5* μg/ml | 1.0 µg/mL (≈ 2.69 µM) | 2.0 µg/mL (≈ 5.39 µM) | 0.2 µg/mL (≈ 0.539 µM) | 0.5 µg/mL (≈ 1.35 µM) | 0.25 µg/mL (≈ 0.673 µM) | 1.0* μg/ml | Anti-fungal activity (summary in words) (Rhizopus sp.): inhibited; Toxicity in vivo [6]: very little toxicity; IC50 (Phialophora Verrucosa): 1.5 µg/mL (≈ 4.04 µM); MIC (Phialophora Verrucosa): 4.0* μg/ml; IC50 (Rhizopus Species): 0.8 µg/mL (≈ 2.15 µM); MIC (Rhizopus Species): 2.0 µg/mL (≈ 5.39 µM); IC50 (Cunninghamella Species): 2.0 µg/mL (≈ 5.39 µM); MIC (Cunninghamella Species): 4.0* μg/ml; IC50 (Absidia Species): 1.5 µg/mL (≈ 4.04 µM); MIC (Absidia Species): 4.0* μg/ml; IC50 (Tricothecium Species): 0.2 µg/mL (≈ 0.539 µM); MIC (Tricothecium Species): 1.5* μg/ml; IC50 (Fonsecae Species): 1.0 µg/mL (≈ 2.69 µM); MIC (Fonsecae Species): 4.0* μg/ml; Anti-fungal activity in vitro (Lu et al.) [7]: anti-fungal activity with eight of the eleven species |
